# What was measured:
# [1] = tested on: CCRF-CEM; experiment: Inhibition of growth of CCRF-CEM human leukemia cells (n=2); assay type: functional, cell-based
# [2] = tested on: MCF7; experiment: Inhibition of growth of MCF-7 breast cancer cell line; assay type: functional; settings: Homo sapiens
# [3] = tested on: RPMI-8226; experiment: Inhibition of growth of RPMI-8226 leukemia cell line; assay type: functional; settings: Homo sapiens
# [4] = tested on: MDA-N; experiment: Inhibition of growth of MDA-Nbreast cancer cell line; assay type: functional; settings: Homo sapiens
# [5] = tested on: SF-295; experiment: Inhibition of growth of SF-295 CNS cancer cell line; assay type: functional; settings: Homo sapiens
# [6] = Inhibition of growth of R30dm (n=2); assay type: functional, Homo sapiens
# [7] = tested on: ACHN; experiment: Inhibition of growth of ACHN renal cancer cell line; assay type: functional; settings: Homo sapiens
# [8] = tested on: HL-60; experiment: Inhibition of growth of HL-60 leukemia cell line; assay type: functional; settings: Homo sapiens
# [9] = tested on: CCRF-CEM; experiment: Inhibition of growth of CCRF-CEM leukemia cell line; assay type: functional; settings: Homo sapiens
# [10] = tested on: MDA-MB-435; experiment: Inhibition of growth of MDA-MB-435 breast cancer cell line; assay type: functional; settings: Homo sapiens
# [11] = tested on: SF-539; experiment: Inhibition of growth of SF-539 CNS cancer cell line; assay type: functional; settings: Homo sapiens
# [12] = tested on: HCT-15; experiment: Inhibition of growth of HCT -15 colon cancer cell line; assay type: functional; settings: Homo sapiens
# [13] = tested on: SF-268; experiment: Inhibition of growth of SF-268 CNS cancer cell line; assay type: functional; settings: Homo sapiens
# [14] = tested on: LOX IMVI; experiment: Inhibition of growth of LOX IMVI melanoma cell line; assay type: functional; settings: Homo sapiens
# [15] = tested on: SW-620; experiment: Inhibition of growth of SW -620 colon cancer cell line; assay type: functional; settings: Homo sapiens
# [16] = molecular target: Dihydrofolate reductase (Escherichia coli, UniProt P0ABQ4); experiment: Inhibition of Escherichia coli dihydrofolate reductase (DHFR)
# [17] = tested on: TK-10; experiment: Inhibition of growth of TK-10 renal cancer cell line; assay type: functional; settings: Homo sapiens
# [18] = tested on: SR; experiment: Inhibition of growth of SR leukemia cell line; assay type: functional; settings: Homo sapiens
# [19] = tested on: U-251; experiment: Inhibition of growth of U251 CNS cancer cell line; assay type: functional; settings: Homo sapiens
# [20] = Inhibition of growth of IGROV1 ovarian cancer cell line; assay type: functional; settings: Homo sapiens, IGROV-1
# [21] = tested on: A549; experiment: Inhibition of growth of A549/ATCC nonsmall cell lung cancer cell line; assay type: functional; settings: Homo sapiens
# [22] = tested on: UO-31; experiment: Inhibition of growth of UO-31 renal cancer cell line; assay type: functional; settings: Homo sapiens
# [23] = tested on: SK-MEL-5; experiment: Inhibition of growth of SK-MEL5 melanoma cell line; assay type: functional; settings: Homo sapiens
# [24] = molecular target: Bifunctional dihydrofolate reductase-thymidylate synthase (Toxoplasma gondii, UniProt Q07422); experiment: Inhibition of Toxoplasma gondii dihydrofolate reductase (DHFR)
# [25] = tested on: NCI-H522; experiment: Inhibition of growth of NCI- H522 nonsmall cell lung cancer cell line; assay type: functional; settings: Homo sapiens
# [26] = tested on: HT-29; experiment: Inhibition of growth of HT 29colon cancer cell line; assay type: functional; settings: Homo sapiens
# [27] = molecular target: Thymidylate synthase (Escherichia coli, UniProt C3SWJ7); experiment: Inhibition of Escherichia coli thymidylate synthase (TS)
# [28] = tested on: R2; experiment: Inhibition of growth of R2(n=2); assay type: functional, cell-based; settings: Homo sapiens
# [29] = molecular target: Dihydrofolate reductase (Homo sapiens, UniProt P00374)
# Description: Inhibition of rh dihydrofolate reductase (DHFR)
# [30] = tested on: OVCAR-5; experiment: Inhibition of growth of OVCAR-5 ovarian cancer cell line; assay type: functional; settings: Homo sapiens
# [31] = molecular target: Thymidylate synthase (Homo sapiens, UniProt P04818); experiment: Inhibition of recombinant human thymidylate synthase (TS)
# [32] = tested on: NCI-H460; experiment: Inhibition of growth of NCI-H460 nonsmall cell lung cancer cell line; assay type: functional; settings: Homo sapiens
# [33] = tested on: K562; experiment: Inhibition of growth of K-562 leukemia cell line; assay type: functional; settings: Homo sapiens
# [34] = tested on: CAKI-1; experiment: Inhibition of growth of CAKI-1 renal cancer cell line; assay type: functional; settings: Homo sapiens
# [35] = tested on: R1; experiment: Inhibition of growth of R1(n=2); settings: Homo sapiens
# [36] = tested on: R1; experiment: Inhibition of growth of R1 (n=2); settings: Homo sapiens
# [37] = tested on: R2; experiment: Inhibition of growth of R2 (n=2); assay type: functional, cell-based; settings: Homo sapiens
# [38] = substrate: CCC(Cc1coc2nc(N)cc(N)c12)c1ccc(C(=O)NC(CCC(=O)O)C(=O)O)cc1; experiment: folyl-poly-glutamate synthetase activity measured as Vmax
# [39] = substrate: Nc1nc(N)c2nc(CNc3ccc(C(=O)N[C@@H](CCC(=O)O)C(=O)O)cc3)cnc2n1; experiment: folyl-poly-glutamate synthetase activity measured as Vmax; rel means relative
# [40] = substrate: CCC(Cc1coc2nc(N)cc(N)c12)c1ccc(C(=O)NC(CCC(=O)O)C(=O)O)cc1; experiment: (§1) folyl-poly-glutamate synthetase activity measured as Km
# [41] = substrate: Nc1nc(N)c2nc(CNc3ccc(C(=O)N[C@@H](CCC(=O)O)C(=O)O)cc3)cnc2n1; experiment: as §1
# Chain of Dihydrofolate reductase (Escherichia coli, UniProt P0ABQ4) (P0ABQ4 whole entry): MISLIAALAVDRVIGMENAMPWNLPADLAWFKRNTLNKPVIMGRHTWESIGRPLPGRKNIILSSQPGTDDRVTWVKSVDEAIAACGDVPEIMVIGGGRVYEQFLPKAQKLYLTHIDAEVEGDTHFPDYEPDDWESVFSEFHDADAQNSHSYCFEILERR
# Chain of Thymidylate synthase (Homo sapiens, UniProt P04818) (P04818 whole entry): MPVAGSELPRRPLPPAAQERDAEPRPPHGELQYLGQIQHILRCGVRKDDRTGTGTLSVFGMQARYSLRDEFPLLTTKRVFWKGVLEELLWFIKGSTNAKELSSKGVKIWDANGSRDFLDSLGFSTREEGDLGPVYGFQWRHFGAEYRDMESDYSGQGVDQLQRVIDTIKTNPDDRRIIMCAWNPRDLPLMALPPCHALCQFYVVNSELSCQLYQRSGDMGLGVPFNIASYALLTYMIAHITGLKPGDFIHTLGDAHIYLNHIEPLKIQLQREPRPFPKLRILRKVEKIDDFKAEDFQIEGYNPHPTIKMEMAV
# Chain of Thymidylate synthase (Escherichia coli, UniProt C3SWJ7) (C3SWJ7 whole entry): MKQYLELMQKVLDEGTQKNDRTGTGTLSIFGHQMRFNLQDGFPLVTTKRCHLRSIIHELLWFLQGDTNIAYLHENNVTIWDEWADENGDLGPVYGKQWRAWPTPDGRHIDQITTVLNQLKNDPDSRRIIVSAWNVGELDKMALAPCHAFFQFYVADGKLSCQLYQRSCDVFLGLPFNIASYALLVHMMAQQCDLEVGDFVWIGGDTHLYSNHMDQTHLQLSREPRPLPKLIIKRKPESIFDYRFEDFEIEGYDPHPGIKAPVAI
# Chain of Dihydrofolate reductase (Homo sapiens, UniProt P00374) (P00374 whole entry): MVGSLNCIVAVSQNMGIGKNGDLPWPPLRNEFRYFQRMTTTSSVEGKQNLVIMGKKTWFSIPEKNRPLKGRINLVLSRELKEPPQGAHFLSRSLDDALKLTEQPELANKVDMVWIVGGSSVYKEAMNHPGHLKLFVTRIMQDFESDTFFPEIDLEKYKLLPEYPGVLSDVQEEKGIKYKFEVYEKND
# Chain of Bifunctional dihydrofolate reductase-thymidylate synthase (Q07422 whole entry): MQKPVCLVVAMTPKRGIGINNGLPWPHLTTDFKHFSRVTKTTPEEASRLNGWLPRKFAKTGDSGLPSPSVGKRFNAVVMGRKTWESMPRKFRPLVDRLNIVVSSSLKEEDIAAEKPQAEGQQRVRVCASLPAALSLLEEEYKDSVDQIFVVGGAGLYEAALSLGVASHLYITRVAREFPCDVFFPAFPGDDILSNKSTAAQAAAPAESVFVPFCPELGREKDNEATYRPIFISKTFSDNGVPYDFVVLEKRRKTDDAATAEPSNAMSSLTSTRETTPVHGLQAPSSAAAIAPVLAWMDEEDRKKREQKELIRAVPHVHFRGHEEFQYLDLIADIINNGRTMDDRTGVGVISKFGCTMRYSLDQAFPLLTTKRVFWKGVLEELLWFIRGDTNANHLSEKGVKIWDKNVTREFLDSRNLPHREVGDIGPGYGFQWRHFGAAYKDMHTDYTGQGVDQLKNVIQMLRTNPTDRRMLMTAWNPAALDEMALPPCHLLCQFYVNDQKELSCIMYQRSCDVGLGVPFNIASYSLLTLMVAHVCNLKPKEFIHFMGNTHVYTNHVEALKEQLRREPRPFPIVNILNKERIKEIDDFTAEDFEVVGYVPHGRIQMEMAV
molecule,measurement,setting,value
CCC(Cc1coc2nc(N)cc(N)c12)c1ccc(C(=O)NC(CCC(=O)O)C(=O)O)cc1 (configuration not stated),EC50,[1],35.5 nM
same,GI50,[2],< 10 nM
same,GI50,[3],< 10 nM
same,GI50,[4],< 10 nM
same,GI50,[5],< 10 nM
same,EC50,[6],50 nM
same,GI50,[7],< 10 nM
same,GI50,[8],< 10 nM
same,GI50,[9],< 10 nM
same,GI50,[10],< 10 nM
same,GI50,[11],< 10 nM
same,GI50,[12],< 10 nM
same,GI50,[13],< 10 nM
same,GI50,[14],23.7 nM
same,GI50,[15],< 10 nM
same,IC50,[16],440 nM
same,GI50,[17],340 nM
same,GI50,[18],< 10 nM
same,GI50,[19],23.2 nM
same,GI50,[20],< 10 nM
same,GI50,[21],13.8 nM
same,GI50,[22],< 10 nM
same,GI50,[23],81.8 nM
same,IC50,[24],1100 nM
same,GI50,[25],< 10 nM
same,GI50,[26],23.9 nM
same,IC50,[27],220000 nM
same,EC50,[28],890 nM
same,IC50,[29],220 nM
same,GI50,[30],< 10 nM
same,IC50,[31],220000 nM
same,GI50,[32],< 10 nM
same,GI50,[33],< 10 nM
same,GI50,[34],< 10 nM
same,EC50,[35],2100 nM
CN(Cc1cnc2nc(N)nc(N)c2n1)c1ccc(C(=O)N[C@@H](CCC(=O)O)C(=O)O)cc1 [METHOTREXATE],EC50,[6],15 nM
same,EC50,[36],1050 nM
same,EC50,[37],2600 nM
"Folylpolyglutamate synthase, mitochondrial (Homo sapiens), Q05932 (protein) MSRARSHLRAALFLAAASARGITTQVAARRGLSAWPVPQEPSMEYQDAVRMLNTLQTNAGYLEQVKRQRGDPQTQLEAMELYLARSGLQVEDLDRLNIIHVTGTKGKGSTCAFTECILRSYGLKTGFFSSPHLVQVRERIRINGQPISPELFTKYFWRLYHRLEETKDGSCVSMPPYFRFLTLMAFHVFLQEKVDLAVVEVGIGGAYDCTNIIRKPVVCGVSSLGIDHTSLLGDTVEKIAWQKGGIFKQGVPAFTVLQPEGPLAVLRDRAQQISCPLYLCPMLEALEEGGPPLTLGLEGEHQRSNAALALQLAHCWLQRQDRHGAGEPKASRPGLLWQLPLAPVFQPTSHMRLGLRNTEWPGRTQVLRRGPLTWYLDGAHTASSAQACVRWFRQALQGRERPSGGPEVRVLLFNATGDRDPAALLKLLQPCQFDYAVFCPNLTEVSSTGNADQQNFTVTLDQVLLRCLEHQQHWNHLDEEQASPDLWSAPSPEPGGSASLLLAPHPPHTCSASSLVFSCISHALQWISQGRDPIFQPPSPPKGLLTHPVAHSGASILREAAAIHVLVTGSLHLVGGVLKLLEPALSQ",Vmax,[38],0.37 rel
same,Vmax,[39],1 rel
same,Km,[40],1.1 µM
same,Km,[41],3.2 µM

# Source: ChEMBL document CHEMBL1135938, “Synthesis of N-[4-[1-ethyl-2-(2,4-diaminofuro[2,3-d]pyrimidin-5-yl)ethyl]benzoyl]-L-glutamic acid as an antifolate” (J Med Chem, 2002)
